Test results as given in US7488748B2, “3,6-Disubstituted azabicyclo hexane derivatives as muscarinic receptor antagonists” (Ranbaxy Laboratories Limited, priority 2003, dated 2009).

Assays:
[1] = target: T1, M2 muscarinic receptor (Rattus norvegicus, UniProt P10980); assay: Radioligand binding assay, [3H]-N-methylscopolamine, rat heart membranes; conditions: [3H]NMS, Ki by Cheng & Prusoff; for Ki: read-out: Receptor Binding Assay pKi M2 (converted)
T1 construct: from tissue; host or cells: rat heart membrane homogenate
T1 sequence (P10980 1-466): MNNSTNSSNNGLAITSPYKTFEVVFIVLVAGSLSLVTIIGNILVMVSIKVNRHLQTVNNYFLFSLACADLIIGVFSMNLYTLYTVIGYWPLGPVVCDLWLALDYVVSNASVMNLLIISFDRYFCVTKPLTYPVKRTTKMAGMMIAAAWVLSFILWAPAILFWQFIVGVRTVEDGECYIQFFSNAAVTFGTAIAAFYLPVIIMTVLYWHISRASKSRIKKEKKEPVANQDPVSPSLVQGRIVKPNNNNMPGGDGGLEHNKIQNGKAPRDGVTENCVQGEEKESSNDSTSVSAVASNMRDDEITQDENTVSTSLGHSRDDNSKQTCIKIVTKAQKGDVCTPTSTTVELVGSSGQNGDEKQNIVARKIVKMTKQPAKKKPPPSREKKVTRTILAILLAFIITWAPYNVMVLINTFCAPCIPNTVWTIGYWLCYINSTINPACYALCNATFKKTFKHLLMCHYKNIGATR
Protocol: (§1) The affinity of test compounds for M2 and M3 muscarinic receptor subtypes was determined by [^3H]—N-methylscopolamine binding studies using rat heart and submandibular gland respectively as described by Moriya et al., (Life Sci., 1999,64(25):2351-2358) with minor modifications.
(§2) Membrane preparation: Submandibular glands and heart were isolated and placed in ice cold homogenizing buffer (HEPES 20 mM, 10 mM EDTA, pH 7.4) immediately after sacrifice. The tissues were homogenized in 10 volumes of homogenizing buffer and the homogenate was filtered through two layers of wet gauze and filtrate was centrifuged at 500 g for 10 min. The supernatant was subsequently centrifuged at 40,000 g for 20 min. The pellet thus obtained was resuspended in same volume of assay buffer (HEPES 20 mM, EDTA 5 mM, pH 7.4) and were stored at −70° C. until the time of assay.
(§3) Ligand binding assay The compounds were dissolved and diluted in DMSO. The membrane homogenates (150-250 μg protein) were incubated in 250 μl of assay buffer (HEPES 20 mM, pH 7.4) at 24-25° C. for 3 h. Non-specific binding was determined in the-presence of 1 μM atropine. The incubation was terminated by vacuum filtration over GF/B fiber filters(Wallac). The filters were then washed with ice cold 50 mM Tris HCl buffer (pH 7.4). The filter mats were dried and bound radioactivity retained on filters was counted. The IC50 & Kd were estimated by using the non-linear curve fitting program using G Pad Prism software. The value of inhibition constant Ki was calculated from competitive binding studies by using Cheng & Prusoff equation (Biochem Pharmacol, 1973,22: 3099-3108), Ki=IC50/(1+L/Kd), where L is the concentration of [^3H]NMS used in the particular experiment.

[2] = target: T2, M3 muscarinic receptor (Rattus norvegicus, UniProt P08483); assay: Radioligand binding assay, [3H]-N-methylscopolamine, rat submandibular gland membranes; conditions: [3H]NMS, Ki by Cheng & Prusoff; for Ki: read-out: Receptor Binding Assay pKi M3 (converted)
T2 construct: from tissue; host or cells: rat submandibular gland membrane homogenate
Protocol: as §1, §2, §3

[3] = tested on: isolated rat bladder; assay: Functional experiments using isolated rat bladder (carbachol-induced contraction); conditions: isolated rat bladder strips, carbachol concentration response curve, antagonist added 20 min prior
Protocol: Functional Experiments Using Isolated Rat Bladder:
Animals were euthanized by overdose of urethane and whole bladder was isolated and removed rapidly and placed in ice cold Tyrode buffer with the following composition (mMol/L) NaCl 137; KCl 2.7; CaCl2 1.8; MgCl2 0.1; NaHCO3 11.9; NaH2PO4 0.4; Glucose 5:55 and continuously gassed with 95% O2 and 5% CO2.
The bladder was cut into longitudinal strips (3 mm wide and 5-6 mm long) and mounted in 10 ml organ baths at 30° C., with one end connected to the base of the tissue holder and the other end connected to a polygraph through a force displacement transducer. Each tissue was maintained at a constant basal tension of 2 g and allowed to equilibrate for 1 hour during which the PSS was changed every 15 min. At the end of equilibration period the stabilization of the tissue contractile response was assessed with 1 μmol/L of Carbachol consecutively for 2-3 times. Subsequently a cumulative concentration response curve to carbachol (10-9 mol/L to 3×10^−5 mol/L) was obtained. After several washes, once the baseline was achieved, cumulative concentration response curve was obtained in presence of NCE (NCE added 20 min. prior to the second CRC).
The contractile results were expressed as % of control E max. ED50 values were calculated by fitting a non-linear regression curve (Graph Pad Prism). PKB values were calculated by the formula pKB=−log [(molar concentration of antagonist/(dose ratio−1))]
dose ratio=ED50 in the presence of antagonist/ED50 in the absence of antagonist.

T2 sequence (P08483 whole entry): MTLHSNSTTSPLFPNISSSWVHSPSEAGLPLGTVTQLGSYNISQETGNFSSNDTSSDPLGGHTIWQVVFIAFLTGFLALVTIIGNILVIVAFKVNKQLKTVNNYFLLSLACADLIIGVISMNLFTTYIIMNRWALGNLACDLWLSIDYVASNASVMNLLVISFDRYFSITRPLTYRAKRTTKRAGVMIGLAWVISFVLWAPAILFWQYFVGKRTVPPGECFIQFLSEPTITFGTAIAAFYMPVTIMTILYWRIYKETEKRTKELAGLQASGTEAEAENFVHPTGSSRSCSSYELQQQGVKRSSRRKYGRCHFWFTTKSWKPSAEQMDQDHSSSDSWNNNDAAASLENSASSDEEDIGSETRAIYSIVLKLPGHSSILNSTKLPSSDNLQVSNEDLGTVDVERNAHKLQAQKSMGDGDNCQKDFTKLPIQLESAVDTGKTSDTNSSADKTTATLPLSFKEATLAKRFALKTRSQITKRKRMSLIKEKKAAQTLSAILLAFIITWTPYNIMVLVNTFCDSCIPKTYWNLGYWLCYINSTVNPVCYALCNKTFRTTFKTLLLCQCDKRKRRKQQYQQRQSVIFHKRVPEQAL

SMILES	Ki [1]	Ki [2]	Functional Assay pKB [3]	Receptor Binding Assay pKi M2 [1]	Receptor Binding Assay pKi M3 [2]
O=C(NC1C2CN(Cc3cccs3)CC21)C(O)(c1ccccc1)C1CCCCC1 (stereo not drawn) [Compound No. 2, (1α, 5α, 6α)-N-[3-(2-Thienylmethyl)-3-azabicyclo[3.1.0]hex-6-yl]-2-hydroxy-2-cyclohexyl-2-phenylacetamide]	3160 nM	129 nM	7.52		
O=C(NC1C2CN(Cc3cccs3)CC21)C(O)(c1ccccc1)C1CCCC1 (stereo not drawn) [Compound No. 3, (1α, 5α, 6α)-N-[3-(2-thienylmethyl)-3-azabicyclo[3.1.0]hex-6-yl]-2-hydroxy-2-cyclopentyl-2-phenylacetamide]	3980 nM	525 nM	8.04		
O=C(NC1C2CN(CCc3ccc(Cl)cc3)CC21)C(O)(c1ccccc1)C1CCCC1 (stereo not drawn) [Compound No. 17, (1α, 5α, 6α)-N-[3-(4-chlorophenethyl)-3-azabicyclo[3.1.0]hex-6-yl]-2-hydroxy-2-cyclopentyl-2-phenylacetamide]	501 nM	79.4 nM	7.02		
O=C(NC1C2CN(CCCc3ccccc3)CC21)C(O)(c1ccccc1)C1CCCC1 (stereo not drawn) [Compound No. 19, (1α, 5α, 6α)-N-[3-(3-phenylpropyl)-3-azabicyclo[3.1.0]hex-6-yl]-2-hydroxy-2-cyclopentyl-2-phenylacetamide]	2630 nM	776 nM	7.52		
CC(c1ccccc1)N1CC2C(C1)C2NC(=O)C(O)(c1ccccc1)C1CCCC1 (stereo not drawn) [Compound No. 21, (1α, 5α, 6α)-N-[3-(1-phenylethyl)-3-azabicyclo[3.1.0]hex-6-yl]-2-hydroxy-2-cyclopentyl-2-phenylacetamide]	631 nM	25.1 nM	8.2		
Cc1ccc(C(C)N2CC3C(C2)C3NC(=O)C(O)(c2ccccc2)C2CCCC2)cc1 (stereo not drawn) [Compound No. 43, (1α, 5α, 6α)-N-[3-[1-(4-methylphenyl)ethyl]-3-azabicyclo[3.1.0]hex-6-yl]-2-hydroxy-2-cyclopentyl-2-phenylacetamide]	1230 nM	58.9 nM	6.86		
Cc1ccc(CCN2CC3C(C2)C3NC(=O)C(O)(c2ccccc2)C2CCCC2)cc1C (stereo not drawn) [Compound No. 50]	813 nM	43.7 nM	7.48		
CC(c1ccccc1)N1CC2C(C1)C2NC(=O)C(O)(c1ccccc1)C1CCCCC1 (stereo not drawn) [Compound No. 58, (1α, 5α, 6α)-N-[3-[1-(phenyl)ethyl]-3-azabicyclo [3.1.0]hex-6-yl]-2-hydroxy-2-cyclohexyl-2-phenylacetamide]	155 nM	5.89 nM	7.89		
COC(=O)c1ccc(CCN2CC3C(C2)C3NC(=O)C(O)(c2ccccc2)C2CCCC2)cc1 (stereo not drawn) [Compound No. 66, (1α, 5α, 6α)-N-[3-(2-(4-methoxycarbonyl)phenyl)ethyl-3-azabicyclo[3.1.0]hex-6-yl]-2-hydroxy-2-cyclopentyl-2-phenylacetamide]	537 nM	43.7 nM	7.67		
O=C(N[C@H]1[C@@H]2CN(CCc3ccc(CO)cc3)C[C@@H]21)C(O)(c1ccccc1)C1CCCC1 (stereo partly drawn) [Compound No. 71, (1α, 5α, 6α)-N-[3-(4-hydroxymethylphenethyl)-3-azabicyclo [3.1.0]-hex-6-yl]-2-hydroxy-2-cyclopentyl-2-phenylacetamide]			6.8	6.01	7.37 -log M (pKi, unitless)
CC(c1ccccc1)N1C[C@@H]2[C@H](C1)[C@H]2NC(=O)C(O)(c1ccccc1)C1CCCCCC1 (stereo partly drawn) [Compound No. 81, (1α, 5α, 6α)-N-[3-(1-phenylethyl)-3-azabicyclo[3.1.0]-hex-6-yl]-2-hydroxy-2-cycloheptyl-2-phenylacetamide]			7.89	7.27	8.62 -log M (pKi, unitless)
O=C(NC1C2CN(Cc3ccccc3)CC21)C(Cl)(c1ccccc1)C1CCCCC1 (stereo not drawn) [Compound No. 115, (1α, 5α, 6α)-N-[3-benzyl-3-azabicyclo[3.1.0]-hex-6-yl]-2-chloro-2-cyclohexyl-2-phenylacetamide]	> 1000 nM	> 1000 nM	5.45		
O=C(NC1C2CN(Cc3ccccc3)CC21)C(c1ccccc1)C1CCCCC1 (stereo not drawn) [Compound No. 116, (1α, 5α, 6α)-N-[3-benzyl-3-azabicyclo[3.1.0]-hex-6-yl]-2-cyclohexyl-1-2-phenylacetamide]	> 1000 nM	> 1000 nM	6.03		
O=C(NC1C2CN(Cc3ccccc3)CC21)C(O)c1ccccc1 (stereo not drawn) [Compound No. 117, (1α, 5α, 6α)-N-[3-benzyl-3-azabicyclo[3.1.0]-hex-6-yl]-2-hydroxy-2-phenylacetamide]	> 1000 nM	> 1000 nM	5.08		
CC(C)=CCCN1CC2C(C1)C2N(C)C(=O)C(O)(c1ccccc1)C1CCCC1 (stereo not drawn) [Compound No. 125, N-methyl-N-(1α, 5α, 6α)-N-[3-(4-methyl-3-pentenyl)-3-azabicyclo[3.1.0]-hex-6-yl]-2-cyclopentyl-2-hydroxy-2-phenylacetamide]	24.5 nM	26.3 nM	8.36		
